These results are taken from patent publication US8415371B2, “Methods and kits for treating cluster headache disorders” (priority 2008, dated 2013).

Data set [1] deals with treatment-refractory cluster headache patients. The experiment in a line: Compassionate use of bromolysergide in treatment-refractory cluster headache patients, daily headache diary (Example 3). Conditions: for continuous period of attack quiescence: indicates transition from chronic to episodic form. It is filed as in vivo, human. From the text:
(§1) Patients referred to the Pain Clinic at the Hannover Medical School were identified with cluster headache if they met the respective diagnostic criteria of the international classification of headache disorders (Headache Classification Committee of the International Headache Society (2004) The International Classification of Headache Disorders, 2nd edn. Cephalalgia 24 Suppl 1:1-160). In addition, all patients were non-responders to verapamil and other prophylactic medications (i.e., refractory to the prophylactic medications listed in Table 1 for each patient). In accordance with German national and local ethics committee rules, all patients signed an informed consent, in which the patients declared their agreement to participate in this project on the compassionate use of bromolysergide for cluster headache. Patients kept a standardized daily diary of cluster headache symptoms starting at least two weeks prior to bromolysergide administration. Bromolysergide (hydrochloride salt) was manufactured by THCpharm GmbH (Frankfurt am Main, Germany). A purity of >99.2% was identified by HPLC and other analytical tests. Bromolysergide hydrochloride 30 μg per Kg body weight was dissolved into distilled water and then given once every 5 days for a total of 3 doses per os. Alterations in consciousness, thought disturbances, and vital signs (blood pressure, heart rate) were measured during a three to four hour observational period following administration. Patients were asked to continue completing daily headache diaries for the next months or until they experience 3 days of attacks of a starting new cluster series.

Data set [2] has the same test system. The experiment in a line: Side effects, consciousness, thought disturbances and vital signs observed three to four hours after bromolysergide administration (Example 3). In kind it is in vivo, human.
From the text: as §1

Data set [3] has as its system subjects diagnosed with chronic cluster headache disorder. Briefly: Treatment of chronic cluster headache disorder with bromolysergide, two adult subjects (Example 1). In kind it is in vivo, human. Conditions: once every five days. As for the experimental part: The desired amount of bromolysergide (hydrochloride salt) was mixed with dextrose and placed into gelatin capsules for administration to subjects suffering from chronic cluster headache disorder.
Bromolysergide was administered to two adult subjects diagnosed with chronic cluster headache disorder during a cluster period. A dose of 2 mg of 2-bromolysergic acid dethylamide (30 μg/kg body weight) was administered orally to subject 1 three times, once every five days. A dose of 2.5 mg of 2-bromolysergic acid dethylamide (approximately 30 μg/kg body weight) was administered orally to subject 2 three times, once every five days.
Subjects were asked to rate their symptoms following administration of bromolysergide.

For data set [4] the following is noted: daily prophylactic administration over time; rare; cited from earlier work.
For data set [5] the following is noted: cited from earlier work.
[6] abbreviates: subject 1, 2 mg (30 μg/kg) orally three times, for ten weeks.
The mark [7] stands for this setting: subject 2, 2.5 mg orally three times.

“Also recorded” adds a separate entry of the source.

Take `CCN(CC)C(=O)[C@@H]1C=C2c3cccc4[nH]c(Br)c(c34)C[C@H]2N(C)C1` [bromolysergide, 2-bromolysergic acid diethylamide]: in data set [1] (five treatment-refractory patients, three single doses of 30 μg/kg within 10 days, FIG. 1), the “overall effect on cluster headache cycle, frequency and intensity of attacks” value was “can either break a cluster headache cycle or considerably improve the frequency and intensity of attacks; also recorded: quite effective at breaking cluster headache cycle; also recorded: can break a cluster headache cycle, convert a chronic cluster headache disorder into an episodic cluster headache disorder, and extend the remission period”. The attack frequency result in data set [1] (patient S1, chronic form, 30 μg/kg per os ×3) is given as “did not show this pronounced attack reduction”; in data set [1] (patient S3, chronic form, 30 μg/kg per os ×3), “pronounced reduction of attack frequency”; in data set [1] (patient S4, chronic form, 30 μg/kg per os ×3), “profound reduction of attack frequency”; in data set [1] (patient S5, chronic form, 30 μg/kg per os ×3), “pronounced reduction of attack frequency”. For the same compound, the “decrease of attack intensity” value in data set [1] (patient S1, chronic form, 30 μg/kg per os ×3, within the first 4 months, continued to drink alcohol) is on record as “about 30%”. For the same compound, the “outcome of cluster period” value in data set [1] (patient S2, episodic form, 30 μg/kg per os once every 5 days, 3 doses) is listed as “termination of their cluster period”. In data set [1] (patient S2, episodic form, 30 μg/kg per os ×3, at last follow-up and continuing), the remission period entry was “six”. Also, the “pain intensity during remaining occasional attacks” value in data set [1] (patient S3, 30 μg/kg per os ×3) is reported as “such reductions of pain intensity during their remaining occasional attacks that they no longer administered an acute intervention”; in data set [1] (patient S4, 30 μg/kg per os ×3), “such reductions of pain intensity during their remaining occasional attacks that they no longer administered an acute intervention”. The “continuous period of attack quiescence” value in data set [1] (patient S3, 30 μg/kg per os ×3) is on record as “greater than 4 week”; in data set [1] (patient S5, 30 μg/kg per os ×3), “greater than 4 week”. Moreover, the “continuous break of attacks” value in data set [1] (patient S4, 30 μg/kg per os ×3) is recorded as “did not show a continuous 4-week break of attacks”. In data set [2] (each of the five subjects, 30 μg/kg per os), the “duration of side effect” value was “about 2 hours”. In addition, the “changes to heart rate and blood pressure” value in data set [2] (five patients, during bromolysergide treatment) is “No changes”. Also, the “duration of mild subjective effects” value in data set [2] (five patients, 30 μg/kg per os) is on record as “one to two”. Moreover, in data set [2] (five patients, 30 μg/kg per os), the “hallucinogenic or psychotic effects” value is listed as “No visual hallucinations or distortions occurred nor was there any evidence of delusional thinking or overt psychosis; also recorded: non-hallucinogenic”. Moreover, the other side effects entry in data set [2] (five patients, apart from very mild alterations of subjective state and mild to no sympathetic reactions) was “no other side effects were observed”. For the same compound, the subjective feelings recorded result in data set [2] (most of the patients, 30 μg/kg per os) is ““flabby” or “light drunk” feelings”. In data set [2] (patient S2, 30 μg/kg per os), the subjective effects noted result is ““funny” feeling, tense muscles, and sweating of their hands”. Also, the Vital signs result is given as “unchanged” in data set [2] (subject S1, 2.5 mg ×3); “unchanged” in data set [2] (subject S2, 2.0 mg ×3); “unchanged” in data set [2] (subject S3, 3.1 mg ×3); “unchanged” in data set [2] (subject S4, 3.1 mg ×3); “unchanged” in data set [2] (subject S5, 2.2 mg ×3). For the same compound, the Side effects result in data set [2] (subject S1, 2.5 mg ×3, cell wraps into r25: “flabby feeling”) is given as ““flabby”; in data set [2] (subject S2, 2.0 mg ×3, cell wraps into r25: “funny feeling”), ““funny”; in data set [2] (subject S3, 3.1 mg ×3), ““slightly”; in data set [2] (subject S4, 3.1 mg ×3) it was ““slightly”; in data set [2] (subject S5, 2.2 mg ×3) it was ““slightly”. In addition, the “rating of results (Clinical Global Impressions Scale)” value in data set [3] (subject 1, chronic cluster headache, 2 mg (30 μg/kg) orally three times) is “minimally improved”; in data set [3] (subject 2, chronic cluster headache for more than 6 years, 2.5 mg (approximately 30 μg/kg) orally three times), “marked/very much improved”. Besides, the “duration of improvement before reverting to pre-treatment form” value in data set [3] (subject 1, 2 mg (30 μg/kg) orally three times) is listed as “ten”. In data set [3] (setting [6]), this compound displayed a reduction in pain of 30%. For the same compound, the “reduction of attack frequency” value in data set [3] (setting [6]) is on record as 30%. Moreover, the “International Headache Society criteria for chronic cluster headache disorder after treatment” value in data set [3] (setting [7]) is listed as “no longer met criteria”. Besides, the remission of symptoms entry in data set [3] (setting [7]) is listed as “complete or nearly complete remission of symptoms”. Moreover, in data set [3] (subject 2, 2.5 mg orally three times, at last follow-up), the “time free of attacks” value is given as “more than 3 months”.

On to `CC[C@@H](CO)NC(=O)[C@@H]1C=C2c3cccc4c3c(cn4C)C[C@H]2N(C)C1` [methysergide], for which the “serious medical complication in the longstanding user” value in data set [4] was “fibrotic reactions (retroperitoneal, pulmonary, pleural, and cardiac)”. The “dose estimated to be equivalent to 25 micgrograms LSD” value in data set [5] (Abrahamson et al., J. Asthma Res. 3:81 (1965)) is “ca. 4 mg”. Further, the hallucinogenic effect result in data set [5] (supra-therapeutic doses) is reported as “hallucinogenic”.
